From US9371337B2, “β-lactamase inhibitors” (The Regents of the University of California, priority 2011, dated 2016)
Read-outs that look alike come from different tables or passages of the source.

Assays:
AmpC β-lactamase [1] = target: T1, AmpC β-lactamase (Escherichia coli, UniProt P00811); assay: biochemical; assay type: biochemical
T1 construct: made in house
Experimental: FIG. 18. Representative IC50 curves. […] IC50 curves were obtained by measuring rates (in duplicates) at different inhibitor concentrations (x-axis) and by determining the residual activity (y-axis, in percentage). IC50 values were determined by non-linear regression and Ki values calculated using GraphPad software assuming competitive inhibition.
Sulfonamidomethaneboronic acids were dissolved in 100% DMSO at a concentration of 100 mM; more diluted stocks were prepared as necessary. […] The enzyme was expressed and purified as described (Usher, K. C. et al., Biochemistry 1998, 37, 16082-16092) and CENTA was purchased from Tydock Pharma.
Kinetic measurements were run at room temperature in 50 mM sodium-cacodylate pH 6.5 in the presence of 0.01% Triton-X to prevent non-specific inhibition via compound aggregation. […] (Kettner, C. A. and Shenvi, A. B., J. Biol. Chem. 1984, 259, 15106-15114) Reactions were performed in 1 mL cuvettes with 60 μM CENTA and initiated by adding 1.2 nM enzyme. […] (Weston, G. S. et al., J. Med. Chem. 1998, 41, 4577-4586) The first 180 sec of each reaction were used to measure initial rates. IC50 values were obtained by fitting binding data to a sigmoidal dose-response equation using GraphPad Prism (GraphPad software, Inc). Ki values were determined by the use of Cheng-Prusoff equation. (Cheng, Y. and Prusoff, W. H., Biochem. Pharmacol. 1973, 22, 3099-3108)

CTX-M-9 β-lactamase = CTX-M-9 β-lactamase (Escherichia coli, UniProt Q9L5C8); assay: biochemical; assay type: biochemical
Experimental: Reactions were initiated by the addition of 0.3 nM enzyme and monitored at 405 nm.
(§1) To assess the selectivity of the new molecules we determined Ki values against three common serine proteases, Trypsin, Elastase and α-Chymotrypsin, as well as that of a class A β-lactamase, CTX-M-9 (Table 10) (Pouvreau L, et al. (1998), FEBS Lett 423:167-172; Del Mar E G, et al. (1980), Biochemistry 19:468-472; Rodriguez-Martinez J A, et al. (2009), Biotechnol Lett 31:883-887; Chen Y, et al. (2005), J Mol Biol 348:349-362).

[2] = target: T2, α-chymotrypsin (bovine pancreatic) (Bos taurus, UniProt P00766); assay: α-Chymotrypsin inhibition; assay type: biochemical
T2 construct: purchased Sigma-Aldrich
Experimental: α-Chymotrypsin assays were performed in 50 mM Tris buffer pH 7.5 with 0.01% Triton-X. Inhibitor and 0.001 mg/mL enzyme were incubated at their final concentration for 10 min before the reaction was initiated by the addition of 200 μM N-succinyl-Ala-Ala-Pro-Phe p-nitroanilide and monitored at 410 nm.
as §1

Elastase = target: T3, Elastase (Sus scrofa, UniProt P00772); assay: Elastase inhibition; assay type: biochemical
T3 construct: IC50 (Estimated from single concentration measurement); Ki
Description: as §1

Trypsin = target: T4, Trypsin (UniProt P00760); assay: Trypsin inhibition; assay type: biochemical
T4 construct: IC50 (Estimated from single concentration measurement); Ki
T4 sequence (P00760 1-246): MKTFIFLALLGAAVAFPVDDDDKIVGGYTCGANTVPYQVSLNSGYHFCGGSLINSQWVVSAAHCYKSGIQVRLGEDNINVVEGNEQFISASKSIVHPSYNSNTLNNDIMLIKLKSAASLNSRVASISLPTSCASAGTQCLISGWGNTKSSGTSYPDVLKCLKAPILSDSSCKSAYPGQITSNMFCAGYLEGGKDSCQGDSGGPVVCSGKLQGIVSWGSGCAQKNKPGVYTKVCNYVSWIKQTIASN

cruzain = cruzain (Trypanosoma cruzi, UniProt P25779); assay: Cruzain inhibition, Z-FR-AMC cleavage; assay type: biochemical
Experimental: Cruzain assays were performed in 100 mM sodium acetate pH 5.5 with 0.01% Triton-X and 5 mM dithiothreitol. Cruzain activity was measured in a 96-well format fluorimetric assay, monitoring the cleavage of the substrate Z-Phe-Arg-aminomethylcoumarin (Z-FR-AMC), in a SpectraMax M5, Molecular Devices spectrofluorimeter.

[3] = system: E. cloacae overproducing chromosomally-mediated class C β-lactamase; assay: MIC of third-generation cephalosporins alone and with compounds 4 or 9 (Table 3); assay type: cell-based, Enterobacter cloacae; details: ratio 1:1
Description: (§2) Antimicrobial activity was investigated quantitatively to determine the minimum inhibitory concentrations (MICs) of the β-lactam/inhibitor combination necessary to inhibit the bacterial growth (Table 3). The MICs of β-lactams alone against the strains corresponded to a high level of resistance according to Clinical and Laboratory Standards Institute (CLSI) standards. (Clinical and Laboratory Standards Institute, Performance standards for antimicrobial susceptibility testing, 20th Informational Supplement, M100-S20 2010) The compounds had no measurable antibiotic activity when used alone.
(§3) Susceptibility testing was performed and interpreted following the guidelines of CLSI. (Clinical and Laboratory Standards Institute, Performance standards for antimicrobial susceptibility testing, 20th Informational Supplement, M100-S20 2010) The compounds were dissolved in 50% DMSO, and dilutions were performed using Muller-Hinton medium. An adequate final concentration was obtained to determine the minimum inhibitory concentrations (MICs). The concentration of DMSO was maintained below 5%. The inhibitors were tested for synergy with the third-generation β-lactams ceftazidime and cefotaxime against several clinical bacteria. […] Each value reported reflects the average of three independent experiments. […] A Klebsiella pneumoniae isolate produced the inducible plasmid-mediated class C enzyme DHA-1. The Friedman's test and the Wilcoxon signed rank test were used to compare MIC values. Statistical significance was established at p<0.05.

[4] = system: C. freundii overproducing chromosomally-mediated class C β-lactamase; assay: as above; assay type: cell-based, Citrobacter freundii; details: ratio 1:1
Description: as §2, §3

[5] = system: P. aeruginosa overproducing chromosomally-mediated class C β-lactamase; assay: as above; assay type: cell-based, Pseudomonas aeruginosa; details: ratio 1:1
Description: as §2, §3

[6] = system: K. pneumoniae producing the plasmid-mediated class C β-lactamase DHA-1; assay: as above; assay type: cell-based, Klebsiella pneumoniae; details: ratio 1:1
Description: as §2, §3

[7] = system: E. coli overproducing chromosomally-mediated class C β-lactamase; assay: as above; assay type: cell-based, Escherichia coli; details: ratio 1:1
Description: as §2, §3

[8] = system: E. coli producing plasmid-mediated class A β-lactamase CTX-M-14; assay: as above; assay type: cell-based, Escherichia coli; details: ratio 1:1
Description: as §2, §3

[9] = system: Klebsiella pneumoniae strain producing AmpC β-lactamase; assay: Disk diffusion plate assay; assay type: cell-based; details: for inhibition of bacterial growth in combination with ceftazidime: disk with ceftazidime (30 μg) and inhibitor (30 μg); for activity on bacteria growth, compound alone: disk with inhibitor alone (30 μg)
Description: (§4) FIG. 9. Inhibition of bacterial growth and potentiation effect. A) Activity of compounds 4 (CP4) and 9 (CP9) in combination with ceftazidime (CAZ) and alone against a Klebsiella pneumoniae strain producing AmpC β-lactamase. Solvent (SOL):DMSO/Water 1:1. B) Potentiation of β-lactamase inhibition in an E. cloacae strain in which ampC gene expression is inducible by β-lactam antibiotics, such as cefoxitin (FOX). C) Potentiation of β-lactamase inhibition in a Klebsiella pneumoniae isolate producing the inducible class C enzyme DHA-1.
For disk diffusion plate assays, bacterial strains were diluted in sterile water to a turbidity equivalent to 0.5 McFarland turbidity standards. After a subsequent 10-fold dilution, the bacterial suspensions were inoculated on Mueller Hinton agar. The plates were dried for 10 min before applying the disks containing cefotaxime or ceftazidime antibiotics (30 μg) or the inhibitor (30 μg) or both. After overnight incubation at 37° C., the zones of bacterial-growth inhibition were measured.

[10] = system: K. pneumoniae and E. cloacae strains in which AmpC expression is inducible; assay: β-lactamase induction experiments (disk potentiation of ceftazidime); assay type: cell-based, Klebsiella pneumoniae; Enterobacter cloacae; details: 64 μg of compounds or 32 μg cefoxitin per disk, ceftazidime disk 30 μg
Description: as §4
A traditional β-lactam resistance mechanism is the upregulation of β-lactamase-encoding gene transcription caused by β-lactams such as cefoxitin and the β-lactamase inhibitor clavulanate. To test the role of compounds on the induction of AmpC expression, we investigated their ability to potentiate the action of the β-lactam ceftazidime. We compared the potentiation effect of compounds with that of cefoxitin (FIGS. 9B and 9C). Agar plates were inoculated with K. pneumoniae and E. cloacae strains in which AmpC expression is inducible. A ceftazidime-containing disk and a disk containing the inhibitors (cefoxitin or compounds 4 and 9) were placed on each plate. As ceftazidime diffuses from disks into the agar, a clear zone is created around the ceftazidime-containing disk, indicating where bacteria are unable to grow. The shape of this halo in the vicinity of the inhibitor-containing disk indicated the effect of these compounds on the induction of AmpC. The inhibition halos normally surrounding ceftazidime were substantially diminished in the regions nearest to the cefoxitin disk.
For the β-lactamase induction experiments, plates of Mueller Hinton agar were inoculated with two clinical strains (E. cloacae and K. pneumoniae) in which production of AmpC-type enzyme is inducible by β-lactam antibiotics. Inhibitors were added to blank disks, and the final content of inhibitor per disk was 64 μg of compounds and 32 μg cefoxitin. Disks of ceftazidime contained 30 μg of antibiotic.

AmpC β-lactamase [11] = target: T1, AmpC β-lactamase; assay type: biochemical; details: enzyme incubation and dilution experiments
[12] = Table 4f, read-out: IC50 (from multi- or single concentration measurements)
[13] = Table 4g, read-out: Ki (from multi- or single concentration measurements)
[14] = Table 4e, read-out: IC50 (Estimated from single concentration measurement)
[15] = Table 8, read-out: Ki vs CTX-M-9

T1 sequence (P00811 20-377): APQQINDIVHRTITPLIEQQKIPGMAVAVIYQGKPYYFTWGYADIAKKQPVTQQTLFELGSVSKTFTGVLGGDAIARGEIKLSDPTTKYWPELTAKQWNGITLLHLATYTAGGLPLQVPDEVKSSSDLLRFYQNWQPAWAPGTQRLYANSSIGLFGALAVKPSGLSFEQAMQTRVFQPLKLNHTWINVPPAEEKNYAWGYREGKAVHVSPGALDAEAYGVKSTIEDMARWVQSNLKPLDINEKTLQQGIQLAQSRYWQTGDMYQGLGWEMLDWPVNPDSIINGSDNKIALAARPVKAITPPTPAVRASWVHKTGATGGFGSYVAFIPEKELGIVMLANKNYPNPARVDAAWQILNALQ
CTX-M-9 β-lactamase, sequence (Q9L5C8 29-291): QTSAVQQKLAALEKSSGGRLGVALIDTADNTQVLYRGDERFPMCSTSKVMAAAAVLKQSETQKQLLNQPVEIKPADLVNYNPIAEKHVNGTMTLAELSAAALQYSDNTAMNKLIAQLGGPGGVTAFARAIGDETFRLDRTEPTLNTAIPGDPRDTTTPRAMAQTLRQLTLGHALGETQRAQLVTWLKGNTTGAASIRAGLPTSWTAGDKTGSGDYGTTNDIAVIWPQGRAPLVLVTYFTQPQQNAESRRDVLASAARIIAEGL
T3 sequence (P00772 27-266): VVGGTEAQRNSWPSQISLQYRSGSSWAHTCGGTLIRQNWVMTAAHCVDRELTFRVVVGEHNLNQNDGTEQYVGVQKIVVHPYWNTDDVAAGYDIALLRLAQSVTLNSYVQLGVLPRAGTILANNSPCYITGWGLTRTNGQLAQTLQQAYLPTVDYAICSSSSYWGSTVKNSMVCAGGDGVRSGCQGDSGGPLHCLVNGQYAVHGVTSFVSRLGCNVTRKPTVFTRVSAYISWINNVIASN
cruzain, sequence (P25779 123-337 limits assumed): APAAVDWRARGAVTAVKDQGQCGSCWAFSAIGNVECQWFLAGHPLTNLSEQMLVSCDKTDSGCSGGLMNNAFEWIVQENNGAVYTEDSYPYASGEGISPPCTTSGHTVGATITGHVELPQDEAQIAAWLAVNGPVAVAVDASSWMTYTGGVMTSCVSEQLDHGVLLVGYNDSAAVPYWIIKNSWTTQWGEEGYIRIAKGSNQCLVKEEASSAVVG

Row | Compound | Ki (CTX-M-9 β-lactamase; [15]) [µM] | IC50 (CTX-M-9 β-lactamase; Table 4a, read-out: IC50) [µM] | inhibition at 100 µM [2] | inhibition at 100 µM (cruzain) | MIC of cefotaxime with compound [3] [µg/mL] | MIC of ceftazidime with compound [3] [µg/mL] | MIC of cefotaxime with compound [4] [µg/mL] | MIC of ceftazidime with compound [4] [µg/mL] | MIC of cefotaxime with compound [5] [µg/mL] | MIC of ceftazidime with compound [5] [µg/mL] | MIC of cefotaxime with compound [6] [µg/mL] | MIC of ceftazidime with compound [6] [µg/mL] | MIC of cefotaxime with compound [7] [µg/mL] | MIC of ceftazidime with compound [7] [µg/mL] | MIC of cefotaxime with compound [8] [µg/mL] | MIC of ceftazidime with compound [8] [µg/mL] | inhibition of bacterial growth in combination with ceftazidime [9] | activity on bacteria growth, compound alone [9] | effect on the ceftazidime inhibition halo (induction of AmpC) [10] | further results
1 | Pinacol(chloromethanesulfonylamino)methaneboronate [CR70] | 5.9 |  |  |  |  |  |  |  |  |  |  |  |  |  |  |  |  |  |  | IC50 (AmpC β-lactamase [1]; [12]): 1.55 µM; Ki (AmpC β-lactamase [1]; [13]): 0.3 µM; Ki (AmpC β-lactamase [1]; Table 7, read-out: Ki Vs AmpC): 0.31 µM; Ki (AmpC β-lactamase [1]; Table 8, read-out: Ki vs AmpC): 0.31 µM; potency estimated from few doses (CTX-M-9 β-lactamase; [14]): 16 µM; IC50 (CTX-M-9 β-lactamase; [12]): 16 µM; Ki (CTX-M-9 β-lactamase; [13]): 5.9 µM; Percentage inhibition with 16 μM inhibitor (CTX-M-9 β-lactamase; Table 4d, 16 μM inhibitor): 50; Percentage activity with 100 μM inhibitor ([2]; Table 4b, 100 μM inhibitor): 90; Percentage inhibition with 100 μM inhibitor ([2]; Table 4c, 100 μM inhibitor): 10; potency estimated from few doses [2, 14]: 900 µM; Percentage inhibition with 100 μM inhibitor (Elastase): 90; Percentage activity with 100 μM inhibitor (Elastase; Table 4b, 100 μM inhibitor): 10; potency estimated from few doses (Elastase; [14]): 11 µM; Percentage activity with 100 μM inhibitor (Trypsin; Table 4b, 100 μM inhibitor): 97; Percentage inhibition with 100 μM inhibitor (Trypsin; Table 4c, 100 μM inhibitor): 3; potency estimated from few doses (Trypsin; [14]): 3230 µM
2 | O=S(=O)(Cc1ccccc1)NCB(O)O [Compound 4, Pinacol(phenylmethanesulfonylamino)methaneboronate] |  | 6.87 | no measurable inhibition | no measurable inhibition | 4 | 4 | 2 | 4 | 16 | 4 | 4 | 8 | 1 | 4 | 16 | 2 | large inhibition halo | little or no detectable activity | synergic picture | Ki (CTX-M-9 β-lactamase): 2.5 µM; Ki (CTX-M-9 β-lactamase; read-out: Ki corresponding to the IC50 values): 2.53 µM; IC50 [2]: > 500 µM; IC50 (cruzain): > 500 µM
3 | O=C(O)c1ccc(CS(=O)(=O)NCB(O)O)cc1 [Compound 9, [(4-carboxyphenyl)methanesulfonylamino]methaneboronic acid] | 0.55 | 1.5 | no measurable inhibition | no measurable inhibition | 8 | 4 | 4 | 4 | 32 | 8 | 2 | 4 | 2 | 8 | 8 | 1 | large inhibition halo | little or no detectable activity | synergic picture | IC50 ([2]; read-out: IC50): > 500 µM; IC50 (cruzain; read-out: IC50): > 500 µM; time dependence of inhibition (incubation effect, off-rate) (AmpC β-lactamase [11]): no measurable time dependence
4 | CO[C@@]1(NC(=O)Cc2cccs2)C(=O)N2C(C(=O)O)=C(COC(N)=O)CS[C@@H]21 [cefoxitin, reference compound] |  |  |  |  |  |  |  |  |  |  |  |  |  |  |  |  |  |  | antagonist picture | 
